Patent publication US20230407373A1 (priority 2020, published 2023)
Read-outs that look alike come from different tables or passages of the source.

Legend:
Format in all cases: binding
HCoV-OC43 gRNA and sgRNA = conditions: for target (unweighted spectral count, OC43 Probe II capture) / target (unweighted spectral count): tested against no-probe control; for target (unweighted spectral count, OC43 Probe II capture): FDR<10%; for target (unweighted spectral count, OC43 Probe II) / background (unweighted spectral count, no-probe control): type n_48_v, 48 hpi; for target (unweighted spectral count, OC43 Probe II): OC43 Probe II capture on infected cells; for background (unweighted spectral count, no-probe control): no-probe control on infected cells; for target (unweighted spectral count): OC43 Probe II, infected cells; for target (spectral count) / background (spectral count): type s_36_m, Probe II; for target (spectral count): HCoV-OC43-infected HCT-8 cells; for background (spectral count): uninfected-probe control
[1] = test system: SARS-CoV-2 gRNA and sgRNAs; conditions: for target (unweighted spectral count in RNP capture): Probe II capture, LC-MS/MS LFQ; for background (unweighted spectral count in control): no-probe control pull-down, used as background for Probe II; for target (unweighted spectral count of the protein in the RNP capture experiment): LC-MS/MS label-free quantification, probe pool not given; for back-ground (unweighted spectral count of the protein in the control experiment): protein background of the control (e.g. no-probe) experiment
gRNA of HCoV-OC43 = conditions: for target (spectral count, OC43 Probe I RNP capture) / background (spectral count, no-probe control): type n_48_v: 48 hours post-infection; for target (spectral count, OC43 Probe I RNP capture): infected cells, unweighted spectral count; for background (spectral count, no-probe control): no-probe control on infected cells

Substance: PRPF8
- target (unweighted spectral count, OC43 Probe II capture) (HCoV-OC43 gRNA and sgRNA; 24 hpi, type n_24_v): 7
- target (unweighted spectral count, OC43 Probe II) (HCoV-OC43 gRNA and sgRNA): 20
- background (unweighted spectral count, no-probe control) (HCoV-OC43 gRNA and sgRNA): 5

Substance: NUMA1
- target (unweighted spectral count) (HCoV-OC43 gRNA and sgRNA; 12 hpi (type n_12_v)): 5

Substance: ENO1
- target (unweighted spectral count in RNP capture) [1]: 22
- background (unweighted spectral count in control) [1]: 4

Substance: GAPDH
- target (unweighted spectral count in RNP capture) [1]: 12
- background (unweighted spectral count in control) [1]: 1

Substance: PPP1CA
- target (unweighted spectral count, OC43 Probe II capture) (HCoV-OC43 gRNA and sgRNA; 36 hpi, type n_36_v): 4

Substance: SUPT16H
- target (unweighted spectral count) (HCoV-OC43 gRNA and sgRNA; 12 hpi (type n_12_v)): 4

Substance: LSM14A
- target (unweighted spectral count in RNP capture) [1]: 8
- background (unweighted spectral count in control) [1]: 1

Substance: TCP1
- target (unweighted spectral count, OC43 Probe II capture) (HCoV-OC43 gRNA and sgRNA; 36 hpi, type n_36_v): 4

Substance: SSRP1
- target (unweighted spectral count, OC43 Probe II capture) (HCoV-OC43 gRNA and sgRNA; 24 hpi, type n_24_v): 4

Substance: RBPMS
- target (unweighted spectral count of the protein in the RNP capture experiment) [1]: 5
- back-ground (unweighted spectral count of the protein in the control experiment) [1]: 1

Substance: MYH9
- target (unweighted spectral count of the protein in the RNP capture experiment) [1]: 9
- back-ground (unweighted spectral count of the protein in the control experiment) [1]: 2
- target (unweighted spectral count, OC43 Probe II capture) (HCoV-OC43 gRNA and sgRNA; 24 hpi, type n_24_v): 6
- target (unweighted spectral count, OC43 Probe II) (HCoV-OC43 gRNA and sgRNA): 9
- background (unweighted spectral count, no-probe control) (HCoV-OC43 gRNA and sgRNA): 1

Substance: H2AFY
- target (unweighted spectral count) (HCoV-OC43 gRNA and sgRNA; 12 hpi (type n_12_v)): 4

Substance: LARP4
- target (unweighted spectral count in RNP capture) [1]: 10
- background (unweighted spectral count in control) [1]: 1
- target (unweighted spectral count, OC43 Probe II capture) (HCoV-OC43 gRNA and sgRNA; 36 hpi, type n_36_v): 4

Substance: RP22L1
- target (unweighted spectral count in RNP capture) [1]: 7
- background (unweighted spectral count in control) [1]: 1

Substance: HIST1H1C
- target (unweighted spectral count) (HCoV-OC43 gRNA and sgRNA; 12 hpi (type n_12_v)): 7

Substance: DDX39B
- target (spectral count, OC43 Probe I RNP capture) (gRNA of HCoV-OC43): 5
- background (spectral count, no-probe control) (gRNA of HCoV-OC43): 1
- target (unweighted spectral count, OC43 Probe II) (HCoV-OC43 gRNA and sgRNA): 6
- background (unweighted spectral count, no-probe control) (HCoV-OC43 gRNA and sgRNA): 1

Substance: EIF4A1
- target (unweighted spectral count in RNP capture) [1]: 8
- background (unweighted spectral count in control) [1]: 1
- target (unweighted spectral count) (HCoV-OC43 gRNA and sgRNA; 24 hpi (type n_24_v)): 5

Substance: KRT16
- target (unweighted spectral count) (HCoV-OC43 gRNA and sgRNA; 24 hpi (type n_24_v)): 22

Substance: EIF4G1: host protein, UniProt Q04637
- target (unweighted spectral count in RNP capture) [1]: 18
- background (unweighted spectral count in control) [1]: 1
- target (unweighted spectral count, OC43 Probe II capture) (HCoV-OC43 gRNA and sgRNA; 24 hpi, type n_24_v): 4
- target (unweighted spectral count, OC43 Probe II capture) (HCoV-OC43 gRNA and sgRNA; 36 hpi, type n_36_v): 7
- target (spectral count) (HCoV-OC43 gRNA and sgRNA; 36 hpi): 7
- background (spectral count) (HCoV-OC43 gRNA and sgRNA; 36 hpi): 1

Substance: DDX54
- target (unweighted spectral count, OC43 Probe II capture) (HCoV-OC43 gRNA and sgRNA; 36 hpi, type n_36_v): 5

Substance: HSPA1B
- target (unweighted spectral count, OC43 Probe II capture) (HCoV-OC43 gRNA and sgRNA; 36 hpi, type n_36_v): 4

Substance: ZC3H7B
- target (unweighted spectral count) (HCoV-OC43 gRNA and sgRNA; 24 hpi (type n_24_v)): 6

Substance: XRCC5: host protein, UniProt P13010
- target (spectral count) (gRNA of HCoV-OC43; type g_36_m, HCoV-OC43-infected HCT-8 cells, 36 hpi, Probe I): 8
- background (spectral count) (gRNA of HCoV-OC43; type g_36_m, uninfected-probe control, 36 hpi, Probe I): 1
- target (spectral count, OC43 Probe I RNP capture) (gRNA of HCoV-OC43): 10
- background (spectral count, no-probe control) (gRNA of HCoV-OC43): 1
- target (unweighted spectral count, OC43 Probe II capture) (HCoV-OC43 gRNA and sgRNA; 36 hpi, type n_36_v): 7
- target (unweighted spectral count, OC43 Probe II) (HCoV-OC43 gRNA and sgRNA): 12
- background (unweighted spectral count, no-probe control) (HCoV-OC43 gRNA and sgRNA): 1
- target (spectral count) (HCoV-OC43 gRNA and sgRNA; 36 hpi): 7
- background (spectral count) (HCoV-OC43 gRNA and sgRNA; 36 hpi): 1

Substance: FAM125A
- target (unweighted spectral count in RNP capture) [1]: 97

Substance: TUBB4B
- target (unweighted spectral count of the protein in the RNP capture experiment) [1]: 6
- back-ground (unweighted spectral count of the protein in the control experiment) [1]: 1
